For this assay, the target named is Mitogen-activated protein kinase 11 (Homo sapiens) (UniProt Q15759). Briefly: PubChem AID 1671325. The note with it: Z'-LYTE FRET kinase activity, recombinant MAPK11.

Each structure is given as a SMILES string.

Chain of Mitogen-activated protein kinase 11 (Homo sapiens) (Q15759 whole entry, looked up): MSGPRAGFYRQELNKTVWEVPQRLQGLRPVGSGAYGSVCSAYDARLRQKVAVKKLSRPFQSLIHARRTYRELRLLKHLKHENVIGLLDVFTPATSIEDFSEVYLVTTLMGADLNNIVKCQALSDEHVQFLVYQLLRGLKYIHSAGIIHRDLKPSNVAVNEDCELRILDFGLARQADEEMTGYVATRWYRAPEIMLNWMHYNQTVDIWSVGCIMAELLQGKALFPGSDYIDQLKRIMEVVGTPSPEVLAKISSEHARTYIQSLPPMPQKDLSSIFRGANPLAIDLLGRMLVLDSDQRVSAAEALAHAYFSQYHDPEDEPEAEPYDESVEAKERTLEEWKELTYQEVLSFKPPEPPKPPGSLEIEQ

The IC50 is the concentration needed to halve the response being measured. Turning to `CC(C)(C)n1nc(-c2ccc(Cl)cc2)c2c(N)ncnc21`, the IC50 was 3.53 µM.

For the origin of these results see PubChem BioAssay AID1671325.
